# According to paper PMC5870190, “A three-in-one-bullet for oesophageal cancer: replication fork collapse, spindle attachment failure and enhanced radiosensitivity generated by a ruthenium(II) metallo-intercalator” (Chemical Science, 2017):
# What was measured:
# [1] = test system: V79 Chinese hamster cells; assay: HPRT forward mutation assay; format: cell-based
# Procedure: propidium iodide (PI) is standard to quantify DNA content using flow cytometry, bleed-through of the MLCT emission of […]
# To remove these artefacts, a higher concentration of Ru1 (100 µM, 10 mins) was additionally applied post-incubation and fixation to treated and control samples, acting as a substitute DNA dye instead of PI. After staining, cells were centrifuged (1000 rpm, 5 mins) and re-suspended in PBS.
# Samples were analysed using a Biosciences LSRII Flow Cytometer using the FL2 channel to collect (recognisable) cell-cycle […]
# profiles. […] A minimum of
# 10,000 cells were counted for each sample and data were processed using FloJo software.
# Microscopy and immunofluorescence. Cells were seeded on ibidi 35 mm µ-dishes (Thistle Scientific), allowed to adhere for 24 h and treated as stated in the main text. Cell media was removed, cells washed with PBS and fixed with formaldehyde (4%, 10 mins). Cells were permeablised with Triton (0.5% in PBS, 5 mins) and washed with PBS. […]
# emission was collected from 500-530 nm to prevent spectral overlap with Ru1 emission. γH2AX foci were counted using […]
# The absorbance at 540 nm was quantified by plate reader (reference wavelength 650 nm). The metabolic activity of the cell population was determined as a percentage of a negative (solvent) control. […]
# Cell cultures were treated as stated, media containing detached/dead cells were removed and retained, and adherent collected by Trypsin and centrifugation. […] Trypan Blue negative and Trypan Blue positive cells were counted by haemocytometer. A minimum of 200 cells were counted for each sample.
# HPRT (hypoxanthine-guanine phosphoribosyl transferase) forward mutation assay. […] The cultures were washed with PBS, cells were detached by trypsin (0.05%) and cell number was determined. […] After 7 days' incubation, the resulting colonies were stained with methylene blue and those containing 100 or more cells were counted. Cloning efficiency was determined and is usually expressed in percent relative to the […]
# [2] = cited from earlier work
substance,measurement,setting,value
[Ru(phen)2(tpphz)]^2+ [Ru1],M.F. (mutation frequency),[1]; 2 μM of each complex for 24 h,36.7 ± 7.3 6-TG resistant mutations per 1 × 10^5 viable cells
same,Rel. M.F. (ratio of induced to spontaneous mutations),[1]; 2 μM of each complex for 24 h,5.8
same,mutation rate lower than for cisplatin,"[1]; HPRT assay, V79, 2 μM, 24 h",two-fold
same,log P,[2],–1.24
